Data on four compounds can be found in publication PMC4305368, “Influence of Dimerization of Lipopeptide Laur-Orn-Orn-Cys–NH2 and an N-terminal Peptide of Human Lactoferricin on Biological Activity” (International Journal of Peptide Research and Therapeutics, 2014).

Like-named read-outs stand apart in the source and are kept apart here. Bridge positions count the residues as written; N and C are the ends. Square brackets hold non-standard residues; d marks the D form. Ends that are not written are not given here. Peptide text beside a SMILES is read from it. I, II: the chains in the order shown. * marks the point of attachment. X1 = CCCCCCCCCCCC(=O)N[C@@H](CCCN)C(=O)N[C@@H](CCCN)C(=O)N[C@@H](CS*)C(N)=O; Lauroyl = CCCCCCCCCCCC(=O)*; Orn = NCCC[C@H](N)C(=O)O

In one data set the test system is S. aureus ATCC 6538. Format: cell-based, Staphylococcus aureus. Here is the method:
(§1) The reference strains were supplied by the Polish Collection of Microorganisms (Polish Academy of Sciences, Institute of Immunology and Experimental Therapy, Wroclaw, Poland). Minimal inhibitory concentration (MIC) was determined by the microbroth dilution method outlined by the National Committee for Clinical Laboratory Standards ([2003]). The following microbial strains were tested: Gram-positive: Rhodococcus equi ATCC 6939, Staphylococcus epidermidis, S. aureus ATCC 6538, Streptococcus pyogenes and Enterococcus faecalis; Gram-negative: E. coli ATCC 8739, Pseudomonas aeruginosa and fungi: C. albicans ATCC10231. Bacteria were suspended in Mueller–Hinton II broth (Sigma-Aldrich) at initial inocula of 5 × 10^5 cfu (colony-forming units)/mL, while the Sabouraud 5 % dextrose broth of a pH of 7.4 (Sigma-Aldrich) was used for fungi (at initial inoculum of 5 × 10^3 cfu/mL). Microbial cells in polystyrene 96-well plates were exposed to the peptides at adequate concentrations (range 1–512 μg/mL) for 18 h at 37 °C (bacterial strains) or for 48 h at 25 °C (fungi). MIC was taken as the lowest drug concentration at which observable growth was inhibited. Experiments were performed in triplicate on three different days.

A further data set relates to E. coli ATCC 8739. It counts as cell-based, Escherichia coli. Here is the method: as §1
The subject of another data set is Enterococcus faecalis. It counts as cell-based. Here is the method:
as §1

The next data set relates to Pseudomonas aeruginosa. It counts as cell-based. Here is the method:
as §1

Data set [1] has as its system Rhodococcus equi ATCC 6939. Format: cell-based. Here is the method:
as §1

Data set [2] relates to Staphylococcus epidermidis. Format: cell-based. Here is the method: as §1
A further data set deals with Streptococcus pyogenes. Format: cell-based. Here is the method:
as §1

The next data set relates to C. albicans ATCC10231. Format: cell-based, Candida albicans. Here is the method: as §1
Another data set has as its system human red blood cells. Briefly: Haemolysis assay. Format: cell-based. Particulars: human red blood cells 4 % [v/v] in PBS, 2 h at 37 °C, range 1-512 µg/mL, assessed visually; 1 % Triton positive control. Here is the method: The haemolytic activity of the peptides was tested against human red blood cells, essentially as described previously (Kamysz et al. [2007]). Fresh human blood was collected into tubes containing EDTA as anticoagulant. Red blood cells were separated by centrifugation at 500×g for 12 min at room temperature and the plasma was aspirated. Erythrocytes were washed three times with PBS, separated by centrifugation (500×g, 12 min) and resuspended in PBS. Peptides I–V were serially diluted in PBS (range 1–512 μg/mL) and 50 μL was added to 50 μL of the erythrocyte suspension. The final concentration of red blood cells was 4 % [v/v]. The results were assessed visually after incubation for 2 h at 37 °C. As a positive control, 1 % Triton was used, whereas PBS served as a negative control.

Turning to `CCCCCCCCCCCC(=O)N[C@@H](CCCN)C(=O)N[C@@H](CCCN)C(=O)N[C@@H](CS)C(N)=O` [Peptide III, Laur-Orn-Orn-Cys–NH2] (Lauroyl-[Orn]-[Orn]-Cys-NH2), the “Antimicrobial activity (MIC)” value turned out to be 2 µg/mL in the data set on S. aureus ATCC 6538 (ATCC 6538, 18 h); 8 µg/mL with E. coli ATCC 8739 (ATCC 8739, 18 h); 2 µg/mL in the data set on Enterococcus faecalis (18 h); 8 µg/mL with Pseudomonas aeruginosa (18 h); 2 µg/mL in [1] (ATCC 6939, 18 h); 2 µg/mL in [2] (18 h). In addition, the “Antimicrobial activity (MIC)” value with Streptococcus pyogenes (18 h) is 4 µg/mL; in the data set on C. albicans ATCC10231 (ATCC10231, 48 h, pH 7.4) it was 128 µg/mL.
With `CCCCCCCCCCCC(=O)N[C@@H](CCCN)C(=O)N[C@@H](CCCN)C(=O)N[C@@H](CSSC[C@H](NC(=O)[C@H](CCCN)NC(=O)[C@H](CCCN)NC(=O)CCCCCCCCCCC)C(N)=O)C(N)=O` [Peptide IV] (I: Lauroyl-[Orn]-[Orn]-Cys-NH2 / II: Lauroyl-[Orn]-[Orn]-Cys-NH2; disulfide I:3-II:3), the “Antimicrobial activity (MIC)” value in the data set with S. aureus ATCC 6538 (ATCC 6538, 18 h) stood at 2 µg/mL; with E. coli ATCC 8739 (ATCC 8739, 18 h), 8 µg/mL; in the data set with Enterococcus faecalis (18 h) it was 4 µg/mL; in the data set on Pseudomonas aeruginosa (18 h), 4 µg/mL; in data set [1] (ATCC 6939, 18 h), 1 µg/mL; in [2] (18 h), 2 µg/mL. Moreover, the “Antimicrobial activity (MIC)” value in the data set on Streptococcus pyogenes (18 h) is listed as 2 µg/mL; with C. albicans ATCC10231 (ATCC10231, 48 h, pH 7.4), more than 512 µg/mL.
As to `CCCCCCCCCCCC(=O)N[C@@H](CCCN)C(=O)N[C@@H](CCCN)C(=O)N[C@@H](CSSC[C@H](NC(=O)[C@H](Cc1c[nH]c2ccccc12)NC(=O)[C@H](CCC(N)=O)NC(=O)[C@@H](NC(=O)[C@H](CO)NC(=O)[C@H](CCCNC(=N)N)NC(=O)[C@H](CCCNC(=N)N)NC(=O)[C@H](CCCNC(=N)N)NC(=O)[C@H](CCCNC(=N)N)NC(=O)CN)C(C)C)C(=O)N[C@@H](C)C(N)=O)C(N)=O` [Peptide V] (H-GRRRRSVQWC(X1)A-NH2; N-terminus assumed), the “Antimicrobial activity (MIC)” value in the data set with S. aureus ATCC 6538 (ATCC 6538, 18 h) turned out to be 4 µg/mL; in the data set on E. coli ATCC 8739 (ATCC 8739, 18 h), 128 µg/mL; in the data set with Enterococcus faecalis (18 h), 32 µg/mL; in the data set with Pseudomonas aeruginosa (18 h), 8 µg/mL; in [1] (ATCC 6939, 18 h) it was 2 µg/mL; in data set [2] (18 h), 1 µg/mL. Further, the “Antimicrobial activity (MIC)” value with Streptococcus pyogenes (18 h) is listed as 2 µg/mL; in the data set with C. albicans ATCC10231 (ATCC10231, 48 h, pH 7.4), more than 512 µg/mL.
Consider “GRRRRSVQWCA-NH2 [Peptide I, hLF(1–11)–NH2]”, for which the “Antimicrobial activity (MIC)” value in the data set on S. aureus ATCC 6538 (Staphylococcus aureus, Mueller-Hinton II broth, 5 × 10^5 cfu/mL, 18 h at 37 °C, range 1-512 µg/mL, triplicate on three different days) is given as 64 µg/mL; in the data set with E. coli ATCC 8739 (Escherichia coli, Mueller-Hinton II broth, 5 × 10^5 cfu/mL, 18 h at 37 °C, range 1-512 µg/mL, triplicate on three different days), 512 µg/mL; in the data set on Enterococcus faecalis (Enterococcus faecalis, Mueller-Hinton II broth, 5 × 10^5 cfu/mL, 18 h at 37 °C, range 1-512 µg/mL, triplicate on three different days), 256 µg/mL; in the data set on Pseudomonas aeruginosa (Pseudomonas aeruginosa, Mueller-Hinton II broth, 5 × 10^5 cfu/mL, 18 h at 37 °C, range 1-512 µg/mL, triplicate on three different days), 32 µg/mL; in data set [1] (Rhodococcus equi, Mueller-Hinton II broth, 5 × 10^5 cfu/mL, 18 h at 37 °C, range 1-512 µg/mL, triplicate on three different days), 16 µg/mL; in data set [2] (Staphylococcus epidermidis, Mueller-Hinton II broth, 5 × 10^5 cfu/mL, 18 h at 37 °C, range 1-512 µg/mL, triplicate on three different days) it was 2 µg/mL. In addition, the “Antimicrobial activity (MIC)” value came to 2 µg/mL in the data set with Streptococcus pyogenes (Streptococcus pyogenes, Mueller-Hinton II broth, 5 × 10^5 cfu/mL, 18 h at 37 °C, range 1-512 µg/mL, triplicate on three different days) and 128 µg/mL in the data set with C. albicans ATCC10231 (Candida albicans, Sabouraud 5 % dextrose broth pH 7.4, 5 × 10^3 cfu/mL, 48 h at 25 °C, range 1-512 µg/mL, triplicate on three different days). The compound further showed a Haemolytic activity in the data set on human red blood cells of more than 512 µg/mL.
